Test results: BindingDB's records for doi:10.1021/acs.jmedchem.8b00164 (Athenex, 2018)

Key:
[1] = Inhibition of human c-SRC expressed in mouse NIH/3T3 cells assessed as inhibition of cell growth in presence of 1.5% FCS by BrdU incorporation assay
[2] = Inhibition of human c-SRC expressed in mouse NIH/3T3 cells assessed as inhibition of cell growth in presence of 0.5% FCS

Row | IC50 [1] | IC50 [2] | SMILES
1 | 349 nM |  | O=C(Cc1ccc(-c2ccccc2)cc1)NCc1cccc(F)c1
2 | 269 nM |  | O=C(Cc1ccc(-c2ccccc2)cn1)NCc1cccc(F)c1
3 | 13 nM | 6.5 nM | O=C(Cc1ccc(-c2ccc(OCCN3CCOCC3)cc2)cn1)NCc1ccccc1 [N-benzyl-2-(5-(4-(2-morpholinoethoxy)phenyl)pyridin-2-yl)acetamide]
4 | 118 nM |  | O=C(Cc1ccc(-c2ccc(OCCN3CCOCC3)cc2)cn1)NCc1cccc(F)c1
